These results are taken from patent publication US4067997A, “Synergistic microbecidal composition and method” (priority 1976, dated 1978).

One assay concerns Staphylococcus aureus. As to the kind of experiment: MIC, agar dilution method (Example XVI). In kind it is cell-based. An excerpt:
(§1) In a manner similar to that described in Example V, the effectiveness of certain food-grade microbecides are compared with mono-esters in an agar dilution method. The very favorable results may be noted from Table 19.

Another assay concerns Escherichia coli. Nature of the assay: MIC, agar dilution method (Example XVI). In kind it is cell-based.
From the text: as §1

For a further assay, the system named is Canadida albicans. Nature of the assay: MIC, agar dilution method (Example XVI). In kind it is cell-based.
From the text: as §1

A further assay relates to Pseudomonas aeruginosa. As to the kind of experiment: MIC, agar dilution method (Example XVI). In kind it is cell-based.
From the text: as §1

The test system of the next assay is Bacillus subtilis. Nature of the assay: MIC, agar dilution method (Example XVI). In kind it is cell-based.
From the text: as §1

The subject of another assay is Aspergillus niger. As to the kind of experiment: MIC, agar dilution method (Example XVI). In kind it is cell-based.
From the text: as §1

In the next assay the test system is Corynebacteria. As to the kind of experiment: MIC, broth dilution (Examples I/II). The assay is classed as cell-based, Corynebacterium sp. (10700). How it is done:
(§2) In order to establish comparative bactericidal and fungicidal results with homologous fatty acids, a series of experiments was performed with thirty straight-chain fatty acids and derivatives thereof. Eight different gram-negative and twelve different gram-positive organisms, representing a very broad spectrum of organisms, were used in these experiments including the fungus Candida (a yeast). Additionally, fatty acids were chosen to show the effects of saturation versus unsaturation, in the fatty acid claim. Standard solutions of the fatty acids and their derivatives were prepared by first dissolving the weighed compounds in 1 to 2 ml of 95% ethanol and immediately pouring this solution into 200 ml of Tripticase Soy Broth. These lipid compounds which are insoluble in water and broth precipitated into very small crystals or droplets. The tubes containing the suspension were warmed to approximately 70° C and were then placed in an ultrasonic tank for further solubilization of the lipid derivatives.
(§3) Standard solutions (or suspensions) at 1,000 μg/ml were twofold serially diluted with additional broth to a concentration of 125 μg/ml. A 4-ml amount of each dilution was then quickly, and with constant agitation, dispensed into appropriately labeled screw-capped glass tubes (16 by 125 mm). The tubes were sterilized with steam at 15 psi for 15 minutes. After sterilization, all tubes were cooled and incubated overnight at 35° C to insure sterility.
(§4) All compounds were compared on a molar (micromoles/milliliter) rather than on a mass basis. In the following lists of organisms used, those followed by a parenthetical number are registered with the American Type Culture Collection (ATCC); the remainder were isolates from Providence Hospital or Northland Laboratory.
(§5) One drop (0.04 ± 0.01 ml) of an 18-hr broth culture containing 10^7 and 10^9 organisms/ml was added to each dilution of the test compound, as well as to a tube of plain broth which served as the positive control. After inoculation, the contents of each tube were well mixed, and the tubes were incubated at 35° C in a 5% carbon dioxide + […] atmosphere.
(§6) The MIC is defined as the lowest concentration of compound at which no […] evidence of growth was observed when turbidity of the inoculated broth dilutions was compared with control tubes. […] Only a one-tube difference between the bactericidal and bacteriostatic concentrations was normally observed.
(§7) Standard solutions (1000 μg/ml) of three fatty acids and polyglycerol esters thereof were prepared as described in Example I. Also sucrose esters were prepared by transferring the weighed compounds (0.2 gm. dissolved in 1 ml absolute methanol) into 200 ml of sterile Trypticase Soy Broth (TSB). These standard solutions (1000 μg/ml) were twofold serially diluted with additional sterile broth to a concentration of 125 μg/ml. A 3.8 aliquot of each dilution was asceptically delivered into sterile screw-capped culture tubes. All tubes were incubated overnight at 36° C to insure sterility. The microorganisms used in this example were the same as those used in Example I.
(§8) The inoculum, 0.05 ml of an 13-24 hour TSB culture (approximately 10^9 organisms/ml) was asceptically delivered into all dilutions of the compounds, mixed well, and incubated at 36° C. A tube of inoculated broth without the compound served as a positive control and an uninoculated set of dilutions incubated along with the test dilutions, served as a negative control.
(§9) In those cases in which the test compound itself caused turbidity, an aliquot (0.015 ml) of the mixed broth was inoculated onto an agar plate and incubated at 36° C for examination, as described in Example I. The control procedure of Example I was also repeated. The lauric, capric, and oleic acids were used as internal controls and for comparison to Example I. The minimal inhibitory concentrations (μmole/ml) for the compounds studied are given in Tables 7 and 8.

Another assay deals with Micrococci. As to the kind of experiment: MIC, broth dilution (Examples I/II). In kind it is cell-based, Micrococcus sp. How it is done: as §2, §3, §4, §5, §6, §7, §8, §9
In another assay the test system is Streptococcus Group D. As to the kind of experiment: MIC, broth dilution (Examples I/II). In kind it is cell-based. Particulars: Table 7, Strep. Grp. D; > = no inhibition, max. tested. How it is done:
as §2, §3, §4, §5, §6, §7, §8, §9

A further assay concerns S. epidermidis. Nature of the assay: MIC, broth dilution (Examples I/II). In kind it is cell-based. The settings on record: Table 7, Staph epider.; > = no inhibition, max. tested. How it is done:
as §2, §3, §4, §5, §6, §7, §8, §9

The test system of the next assay is Sarcina. As to the kind of experiment: MIC, broth dilution (Examples I/II). The assay is classed as cell-based, Sarcina lutea (9431). Particulars: Table 7, Sarcina; > = no inhibition, max. tested. How it is done:
as §2, §3, §4, §5, §6, §7, §8, §9

For assay [1], the system named is Streptococcus β-hemolytic Non-A. As to the kind of experiment: MIC, broth dilution (Examples I/II). In kind it is cell-based, beta-hemolytic streptococci non-group A. How it is done: as §2, §3, §4, §5, §6, §7, §8, §9
Another assay has as its system Streptococcus Group A. Nature of the assay: MIC, broth dilution (Examples I/II). In kind it is cell-based, beta-hemolytic streptococci Group A. The procedure, abridged: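 MIC values were determined in TSB tube dilutions, 1,000 down to 125 μg/ml, using sonicated lipid suspensions and ~10^9 organisms/ml inocula incubated at 35–36° C, partly under 5% CO2. Growth absence was judged by turbidity or agar subculture, with results converted to μmol/ml.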

A further assay relates to S. pyogenes. As to the kind of experiment: Growth curve by optical density (Example IV, FIG. 3). In kind it is cell-based, streptococcus pyogenes. Particulars: 24 hours. How it is done:
To a series of containers is added 40 ml of Trypticase Soy Broth and 0.5 ml of streptococcus pyogenes (10^8 organisms/ml). To respective containers are added the following: (1) 10 μg of glycerol 1-mono-laurinand 10 μg of glycerol dilaurin; (2) 5 μg of glycerol 1-mono-laurin and 5 μg of glycerol dilaurin; (3) 10 μg of glycerol 1-mono-laurin; and (4) 5 μg of glycerol 1-mono-laurin; and (5) a control without any additives. The rate of growth of the S. pyogenes was followed for 24 hours at 6 hour intervals by reading the optical density of the cultures at […] in a spectrophotometer.

A further assay concerns S. aureus. As to the kind of experiment: MIC, broth dilution (Examples I/II). The assay is classed as cell-based, Staphylococcus aureus. The settings on record: Table 1, S. aureus. How it is done: as §2, §3, §4
One drop (0.04 ± 0.01 ml) of an 18-hr broth culture containing 10^7 and 10^9 organisms/ml was added to each dilution of the test compound, as well as to a tube of plain broth which served as the positive control. […]

A further assay concerns Nocardia asteroides. Nature of the assay: MIC, broth dilution (Examples I/II). The settings on record: Table 1, Nocardia asteroides. The assay is classed as cell-based, Nocardia asteroids (3308). How it is done:
as §2, §3, §4, §5, §6, §7, §8, §9

Another assay deals with Pneumococci. As to the kind of experiment: MIC, broth dilution (Examples I/II). Particulars: Table 1, Pneumococci. The assay is classed as cell-based, pneumococcus (63001). How it is done: as §2, §3, §4, §5, §6, §7, §8, §9

Values after ≈ are worked out from the molar mass of the structure shown. Read-outs that look alike come from different tables or passages of the source.

As for `CCCOC(=O)c1ccc(O)cc1` [Propyl paraben], the MIC in the assay on Staphylococcus aureus (Staphylococcus aureus, Table 19, agar dilution, read-out: MIC) is 2500 µg/mL (≈ 13.9 mM); in the assay with Escherichia coli (Escherichia coli, Table 19, agar dilution, read-out: MIC) it was 5000 µg/mL (≈ 27.7 mM); in the assay with Canadida albicans (Table 19, agar dilution, read-out: MIC) it was 2500 µg/mL (≈ 13.9 mM); in the assay with Pseudomonas aeruginosa (Pseudomonas aeruginosa, Table 19, agar dilution, read-out: MIC), greater than 10000 µg/mL; with Bacillus subtilis (Bacillus subtilis, Table 19, agar dilution, read-out: MIC), 2500 µg/mL (≈ 13.9 mM); in the assay with Aspergillus niger (Aspergillus niger, Table 19, agar dilution, read-out: MIC), 2500 µg/mL (≈ 13.9 mM).

In the case of `C[CH2][Hg][S]c1ccccc1C(=O)[O-].[Na+]` [Thimerosal], the MIC in the assay on Staphylococcus aureus (Table 19, agar dilution) is 0.78 µg/mL; with Escherichia coli (Table 19, agar dilution), 1.60 µg/mL; against Canadida albicans (Table 19, agar dilution) it was 0.10 to 0.20 µg/mL; with Pseudomonas aeruginosa (Table 19, agar dilution), 6.30 to 12.50 µg/mL; in the assay with Bacillus subtilis (Table 19, agar dilution), 0.39 µg/mL; in the assay on Aspergillus niger (Table 19, agar dilution) it was 0.10 µg/mL.

Decaglycerol monolaurate: the MIC in the assay on Corynebacteria (Table 7, Cornebacteria) is 530 µM; against Micrococci (Table 7, Micrococci), 530 µM; in the assay on Streptococcus Group D, greater than 1060 µM; against S. epidermidis, greater than 1060 µM; in the assay with Sarcina, greater than 1060 µM; in assay [1] (Table 7, Strep. β-hemo. Non-A) it was 530 µM. In the assay with Streptococcus Group A (Table 7, Strep. Grp. A), the MIC amounted to 260 µM.

In the case of glycerol dilaurin, the “Antimicrobial activity in words (growth curve)” value in the assay on S. pyogenes was “essentially inactive”.

In the case of Triglycerol monolaurate, the MIC was 240 µM in the assay on Corynebacteria (Table 7, Cornebacteria); 290 µM in the assay on Micrococci (Table 7, Micrococci); greater than 2360 µM with Streptococcus Group D; greater than 2360 µM with S. epidermidis; 1180 µM in the assay on Sarcina; 590 µM in [1] (Table 7, Strep. β-hemo. Non-A). In the assay on Streptococcus Group A (Table 7, Strep. Grp. A), the MIC turned out to be 290 µM.

Regarding `CC/C=C\C/C=C\C/C=C\CCCCCCCC(=O)O` [Linolenic], the MIC against S. aureus worked out at 1790 µM (≈ 498 µg/mL); in the assay with Nocardia asteroides it was 488 µM (≈ 136 µg/mL); against Corynebacteria (Table 1, Corynebacteria) it was 179 µM (≈ 49.8 µg/mL); against Micrococci (Table 1, Micrococci), 488 µM (≈ 136 µg/mL); in assay [1] (Table 1, Streptococcus β-hemolytic Non-A), 350 µM (≈ 97.5 µg/mL); against Streptococcus Group A (Table 1, Streptococcus Group A) it was 350 µM (≈ 97.5 µg/mL). The compound further had an MIC against Pneumococci of 179 µM (≈ 49.8 µg/mL).

Turning to `CCCCCC/C=C\CCCCCCCC(=O)[O-].[Na+]` [Palmitoleic acid sodium salt], the MIC against Staphylococcus aureus (Staphylococcus aureus) is 15.6 µg/mL; with Escherichia coli (Escherichia coli), greater than 1000 µg/mL; against Canadida albicans, greater than 1000 µg/mL; against Pseudomonas aeruginosa (Pseudomonas aeruginosa), greater than 1000 µg/mL; with Bacillus subtilis (Bacillus subtilis), 500 µg/mL; against Aspergillus niger (Aspergillus niger), greater than 1000 µg/mL.
